Experimental data as given in patent publication US20240182444A1, “ANTI-VIRAL COMPOUNDS” (Aligos Therapeutics, Inc., priority 2022, published 2024).
Read-outs that look alike come from different tables or passages of the source.

Columns and labels:
in vitro = conditions: human
[1] = Cytotoxicity in HeLa cells without OC43 virus; format: cell-based; conditions: human, HeLa cells (uninfected), in parallel
Method: (§1) The human beta-coronavirus OC43 was purchased from ATCC (Manassas, VA) and propagated using HCT-8 human colorectal epithelial cells (ATCC). HeLa human cervical epithelial cells (ATCC) were used as susceptible host cell lines and were cultured using EMEM media, supplemented with 10% fetal bovine serum (FBS), 1% (v/v) penicillin/streptomycin (P/S), 1% (v/v) HEPES and 1% (v/v) cellgro Glutagro™ supplement (all Corning, Manassas, VA) at 37° C. For the OC43 antiviral assay, 1.5×10^4 HeLa cells per well were plated in 100 μL complete media in white 96-well plates with clear bottoms at 37° C. for up to 24 h to facilitate attachment and allow cells to recover from seeding stresses. Next day, the cell culture medium was removed. Serially diluted compounds in 100 μL assay media (EMEM, 2% FBS, 1% P/S, 1% cellgro Glutagro™ supplement, 1% HEPES) were added to the cells and incubated for 4 h at 37° C. in a humidified 5% CO2 incubator. 100 μL of OC43 virus stock was diluted to a concentration known to produce optimal cytopathic effect, inducing 80-90% reduction in cell viability. 96-well plates were incubated for 6 days at 33° C.; each plate contains uninfected control wells as well as virus-infected wells that were not treated with compound. Cytotoxicity plates without the addition of OC43 virus were carried out in parallel. At the end of the incubation period, 100 μL cell culture supernatant was replaced with 100 μL cell-titer-glo reagent (Promega, Madison, WI) and incubated for at least 10 min at rt prior to measuring luminescence. Luminescence was measured on a Perkin Elmer (Waltham, MA) Envision plate reader. Antiviral % inhibition was calculated as follows: [(Compound treated cells infected sample)−(no compound infected control)]/[(Uninfected control)−(no compound infected control)]*100; Using GraphPad (San Diego, CA) prism software version 8.3.1, the antiviral dose-response plot was generated as a sigmoidal fit, log(inhibitor) vs response-variable slope (four parameters) model and the EC50 was calculated which is the predicted compound concentration corresponding to a 50% inhibition of the viral cytopathic effect.
(§2) Table 2 indicates related EC50 and CC50 values for the tested compounds ‘A’ indicates an EC50<100 nM, ‘B’ indicates an EC50 of ≥100 nM and <1000 nM, ‘C’ indicates an EC50≥1000 nM and <10000 nM and ‘D’ indicates an EC50≥10000 nM and <100000 nM. For CC50, the values are reported in micromolar (M), ‘A’ indicates a CC50≥10000 nM and ‘B’ indicates a CC50≥1 μM and <10 μM.

[2] = test system: SARS-CoV-2 B.1.1.7 lineage; assay: microbe, parasite or virus in culture; format: cell-based; conditions: Severe acute respiratory syndrome coronavirus 2, 96 h; read-out: A549-dual_ACE2_TMPRSS2 (EC50)
SARS-Cov-2 3CLpro = target: T1, SARS-Cov-2 3CLpro (Severe acute respiratory syndrome coronavirus 2, UniProt P0DTD1); assay: SARS-Cov-2 3CLpro protease assay (SAMDI-MS); format: biochemical
T1 construct: 3CLpro was added using a Multidrop Combi

human cathepsin L = target: T2, human cathepsin L (Homo sapiens, UniProt P07711); assay: Cathepsin L assay; format: biochemical; conditions: 10 pM human cathepsin L, Z-FR-AMC 2 μM
T2 construct: purchased R&D Systems
T2 sequence (P07711 114-333): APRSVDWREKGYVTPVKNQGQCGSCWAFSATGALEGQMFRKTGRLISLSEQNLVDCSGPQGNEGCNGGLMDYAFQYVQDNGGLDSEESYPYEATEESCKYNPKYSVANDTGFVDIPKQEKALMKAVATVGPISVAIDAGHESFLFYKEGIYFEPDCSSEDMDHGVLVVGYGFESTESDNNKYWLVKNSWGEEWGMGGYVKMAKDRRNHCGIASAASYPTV
Method: For the cathepsin L assay, 10 pM of human cathepsin L (R&D Systems; Minneapolis, MN) was preincubated for 30 mins with test compounds. Reactions were initiated by the addition of a peptide substrate Z-FR-AMC (final concentration 2 μM, Anaspec; Fremont, CA). Fluorescence was measured at 2-minute intervals for 30 mins using a 355/460 excitation/emission filter module on an Envision plate reader (Perkin Elmer; Waltham, MA). The IC50 values were calculated for each assay by fitting the curves using a four-parameter equation in GraphPad Prism.
Table 4 indicates related IC50 values for the tested compounds where ‘A’ indicates an IC50≥10000 nM, ‘B’ indicates an IC50 of ≥1000 nM and <10000 nM, ‘C’ indicates an IC50; ≥100 nM and <1000 nM, ‘D’ indicates an IC50<100 nM.

[3] = test system: human beta-coronavirus OC43; assay: OC43 coronavirus antiviral assay in HeLa cells; format: cell-based; conditions: Betacoronavirus 1, 144 h, OC43, 6 days at 33° C., cell-titer-glo
Method: as §1, §2

3Clpro = 3Clpro (Severe acute respiratory syndrome coronavirus 2, UniProt P0DTD1); conditions: cited from earlier work
SARS-CoV-2 [4] = conditions: VeroE6, A549-ACE2 and/or HeLa-ACE2; cited from earlier work
SARS-CoV-2 [5] = conditions: A549-ACE2 expressing TMPRSS2; cited from earlier work
[6] = 30 mins preincubation, duplex peptide substrates, read-out: SARS-Cov-2 (3CLpro IC50)

SMILES | CC50 (in vitro) | CC50 at 6 days [1] | EC50 [2] | IC50 (SARS-Cov-2 3CLpro; [6]) | IC50 (human cathepsin L) | EC50 [3] | IC50 (SARS-Cov-2 3CLpro; bound given in table footnote, read-out: SARS-Cov-2 activity (footnote of Table 1)) | inhibitory effect on the 3Clpro (3Clpro) | inhibition of SARS-CoV-2 (SARS-CoV-2 [4]) | antiviral effect when TMPRSS2 was expressed (SARS-CoV-2 [5])
CC(C)(C)[C@H](NC(=O)C(F)(F)F)C(=O)N1C[C@H]2[C@@H]([C@H]1C(=O)NC(C#N)c1cncc3ccccc13)[C@H]1C=C[C@@H]2C1 (stereo partly drawn) [Compound 1, (1S,3aR,4S,7R,7aS)—N-(cyano(isoquinolin-4-yl)methyl)-2-((S)-3,3-dimethyl-2-(2,2,2-trifluoroacetamido)butanoyl)-2,3,3a,4,7,7a-hexahydro-1H-4,7-methanoisoindole-1-carboxamide] | > 1000 nM | ≥ 10000 nM | < 100 nM | < 20 nM | ≥ 10000 nM | < 100 nM | – | – | – | –
CC(C)(C)[C@H](NC(=O)C(F)(F)F)C(=O)N1C[C@H]2[C@@H]([C@H]1C(=O)NC(C#N)c1cnc3ccccn13)[C@H]1C=C[C@@H]2C1 (stereo partly drawn) [Compound 2, (1S,3aR,4S,7R,7aS)—N-(cyano(imidazo[1,2-a]pyridin-3-yl)methyl)-2-((S)-3,3-dimethyl-2-(2,2,2-trifluoroacetamido)butanoyl)-2,3,3a,4,7,7a-hexahydro-1H-4,7-methanoisoindole-1-carboxamide] | > 1000 nM | ≥ 10000 nM | 100 to 1000 nM | < 20 nM | ≥ 10000 nM | 100 to 1000 nM | – | – | – | –
CC(C)(C)[C@H](NC(=O)C(F)(F)F)C(=O)N1C[C@H]2[C@@H]([C@H]1C(=O)NC(C#N)c1cccnc1)[C@H]1C=C[C@@H]2C1 (stereo partly drawn) [Compound 3, (1R,2S,3S,6R,7S)—N-[cyano(pyridin-3-yl)methyl]-4-[(2S)-3,3-dimethyl-2-(2,2,2-trifluoroacetamido)butanoyl]-4-azatricyclo[5.2.1.0^{2,6}]dec-8-ene-3-carboxamide] | > 1000 nM | ≥ 10000 nM | 100 to 1000 nM | < 20 nM | ≥ 10000 nM | 100 to 1000 nM | – | – | – | –
CC(C)(C)[C@H](NC(=O)C(F)(F)F)C(=O)N1CCC2(CC2)C[C@H]1C(=O)NC(C#N)c1cnn2ccccc12 (stereo partly shown) [Compound 18] | > 1000 nM | ≥ 10000 nM | 100 to 1000 nM | < 20 nM | – | 100 to 1000 nM | – | – | – | –
COc1cccn2ncc(C(C#N)NC(=O)[C@@H]3[C@@H]4[C@H](CN3C(=O)[C@@H](NC(=O)C(F)(F)F)C(C)(C)C)[C@H]3C[C@@H]4[C@H](F)C3)c12 (stereo partly shown) [Compound 19] | > 1000 nM | ≥ 10000 nM | < 100 nM | < 20 nM | – | 100 to 1000 nM | – | – | – | –
CC(C)(C)[C@H](NC(=O)C(F)(F)F)C(=O)N1C[C@@H]2[C@H]3C[C@@H]([C@@H]2[C@H]1C(=O)NC(C#N)c1cnn2cc(F)ccc12)[C@H](F)C3 (stereo partly shown) [Compound 20] | > 1000 nM | ≥ 10000 nM | < 100 nM | < 20 nM | – | 100 to 1000 nM | – | – | – | –
CC(C)(C)[C@H](NC(=O)C(F)(F)F)C(=O)N1C[C@@H]2[C@H]3C[C@@H]([C@@H]2[C@H]1C(=O)NC(C#N)c1cncc2cnccc12)[C@H](F)C3 (stereo partly shown) [Compound 22] | > 1000 nM | ≥ 10000 nM | 100 to 1000 nM | < 20 nM | – | 1000 to 10000 nM | – | – | – | –
N#CC(NC(=O)[C@@H]1[C@@H]2[C@H](CN1C(=O)[C@H](CC1CC1)NC(=O)C(F)(F)F)[C@H]1C[C@@H]2[C@H](F)C1)c1cnn2ccccc12 (stereo partly shown) [Compound 24] | > 1000 nM | ≥ 10000 nM | 100 to 1000 nM | < 20 nM | – | 100 to 1000 nM | – | – | – | –
CC(C)(C)[C@H](NC(=O)C(F)(F)F)C(=O)N1C[C@@H]2[C@H]3C[C@@H]([C@@H]2[C@H]1C(=O)NC(C#N)c1cnn2ccccc12)[C@H](F)C3 (stereo partly shown) [Compound 25] | > 1000 nM | ≥ 10000 nM | 100 to 1000 nM | < 20 nM | – | 100 to 1000 nM | – | – | – | –
COc1cccc2cncc(C(C#N)NC(=O)[C@@H]3[C@@H]4[C@H](CN3C(=O)[C@@H](NC(=O)C(F)(F)F)C(C)(C)C)[C@H]3C[C@@H]4[C@H](F)C3)c12 (stereo partly shown) [Compound 26] | > 1000 nM | ≥ 10000 nM | < 100 nM | < 20 nM | – | < 100 nM | – | – | – | –
CC(C)(C)[C@H](NC(=O)C(F)(F)F)C(=O)N1C[C@@H]2[C@H]3C[C@@H]([C@@H]2[C@H]1C(=O)NC(C#N)c1cncc2c1OCCO2)[C@H](F)C3 (stereo partly shown) [Compound 27] | > 1000 nM | ≥ 10000 nM | ≥ 1000 nM | 20 to 200 nM | – | 1000 to 10000 nM | – | – | – | –
COc1cccc2cncc([C@@H](C#N)NC(=O)[C@@H]3[C@@H]4[C@H](CN3C(=O)[C@@H](NC(=O)C(F)(F)F)C(C)(C)C)[C@H]3C[C@@H]4[C@H](F)C3)c12 [Compound 28] | > 1000 nM | ≥ 10000 nM | < 100 nM | < 20 nM | – | < 100 nM | – | – | – | –
COc1cccc2cncc([C@H](C#N)NC(=O)[C@@H]3[C@@H]4[C@H](CN3C(=O)[C@@H](NC(=O)C(F)(F)F)C(C)(C)C)[C@H]3C[C@@H]4[C@H](F)C3)c12 [Compound 29] | > 1000 nM | ≥ 10000 nM | < 100 nM | 20 to 200 nM | – | 100 to 1000 nM | – | – | – | –
COc1cccc2cncc(C(C#N)NC(=O)[C@@H]3[C@@H](c4ccccc4)CCN3C(=O)[C@@H](NC(=O)C(F)(F)F)C(C)(C)C)c12 (stereo partly shown) [Compound 30] | > 1000 nM | ≥ 10000 nM | ≥ 1000 nM | 20 to 200 nM | – | 1000 to 10000 nM | – | – | – | –
CC(C)(C)[C@H](NC(=O)C(F)(F)F)C(=O)N1C[C@@H]2[C@H]3C[C@@H]([C@@H]2[C@H]1C(=O)NC1(C#N)CCCc2ccncc21)[C@H](F)C3 (stereo partly shown) [Compound 31] | > 1000 nM | ≥ 10000 nM | ≥ 1000 nM | 2000 to 20000 nM | – | 1000 to 10000 nM | > 2000 nM | – | – | –
CN1CCN(C(=O)N[C@@H](Cc2ccccc2)C(=O)N[C@H](/C=C/S(=O)(=O)c2ccccc2)CCc2ccccc2)CC1 [Compound K117777] | – | – | – | – | – | – | – | lacks an inhibitory effect | potent inhibition | abolished
